Source: patent US20260000642A1 (Tay Therapeutics Limited, priority 2022, published 2026)
Where “and” joins values, the source holds several entries; their conditions need not be identical. Equal entries are not always repeated.

Test system: collagen-induced arthritis in Lewis rats
Assay: Collagen-induced arthritis (CIA) model in rats: body weight, paw volume, clinical scores, clinical observations; for Detailed Clinical Scores, left forelimb: key of the grades not given here; for Detailed Clinical Scores, left hind limb: key of the grades not given here; for Detailed Clinical Scores, right forelimb: key of the grades not given here; for Detailed Clinical Scores, right hind limb: key of the grades not given here; for Detailed Clinical Scores, score: key of the grades not given here; for Overall clinical score: key of the grades not given here
Conditions: for Animal paw volume / Animal body weight percent change: Group 3 (CIA + Dexamethasone); for Animal paw volume: individual animals 1-8; for Animal paw volume percent change (%): individual animals, CIA + reference compound (Groups 3, 4); for Average animal body weight percent change: CIA + compound; for Detailed Clinical Scores, left forelimb / Detailed Clinical Scores, left hind limb / Detailed Clinical Scores, right forelimb / Detailed Clinical Scores, right hind limb / Detailed Clinical Scores, score: per animal ID; for Overall clinical score: individual CIA rats
[1] = CIA rats, daily P.O. for 21 days

## C[C@@H]1C[C@H]2[C@@H]3CCC4=CC(=O)C=C[C@]4(C)[C@@]3(F)[C@@H](O)C[C@]2(C)[C@@]1(O)C(=O)CO [dexamethasone]
CIA rats, day 21 vs day 0, daily P.O. for 21 days
  animals that gained weight by the end of the study (of 8): 4/8
[1]
  diarrhea over the 21-day period: did not have diarrhea
  increase in body weight, day 21 compared to day 0: 1.3%
Day 0, L paw
  Animal paw volume: 1.35 mL and 1.31 mL and 1.39 mL and 1.33 mL and 1.30 mL (2×) and 1.34 mL and 1.36 mL
  Animal paw volume percent change (%): 0.00%
Day 0, R paw
  Animal paw volume: 1.34 mL and 1.30 mL (2×) and 1.38 mL and 1.35 mL and 1.29 mL and 1.36 mL and 1.37 mL
  Animal paw volume percent change (%): 0.00%
Day 0
  Average animal body weight percent change: 0.00%
  Overall clinical score: 0
Day 0, CIA
  Detailed Clinical Scores, left forelimb: 0
  Detailed Clinical Scores, left hind limb: 0
  Detailed Clinical Scores, right forelimb: 0
  Detailed Clinical Scores, right hind limb: 0
  Detailed Clinical Scores, score: 0
Day 1
  Average animal body weight percent change: −2.80%
Day 2
  Average animal body weight percent change: −3.22%
Day 3
  Average animal body weight percent change: −4.37%
Day 4
  Average animal body weight percent change: −4.95%
Day 5
  Average animal body weight percent change: −4.95%
Day 6, L paw
  Animal paw volume: 1.31 mL and 1.29 mL (3×) and 1.34 mL and 1.28 mL
  Animal paw volume percent change (%): −2.97% and −1.53% and −3.61% and −3.02% and −3.09% and −3.08% and −4.12% and −5.51%
Day 6, R paw
  Animal paw volume: 1.30 mL (3×) and 1.28 mL (2×) and 1.34 mL and 1.27 mL
  Animal paw volume percent change (%): −3.00% and −1.16% and 2.91% and −1.56% and 12.70% and −5.90% and −5.13%
Day 6
  Average animal body weight percent change: −4.41%
  Overall clinical score: 0
Day 6, CIA
  Detailed Clinical Scores, left forelimb: 0
  Detailed Clinical Scores, left hind limb: 0
  Detailed Clinical Scores, right forelimb: 0
  Detailed Clinical Scores, right hind limb: 0
  Detailed Clinical Scores, score: 0
Day 7
  Average animal body weight percent change: −3.35%
Day 8
  Average animal body weight percent change: −3.90%
Day 9
  Average animal body weight percent change: −1.84%
Day 10
  Average animal body weight percent change: −2.30%
Day 11
  Average animal body weight percent change: −1.24%
Day 12, L paw
  Animal paw volume: 1.37 mL and 1.28 mL (2×) and 1.30 mL and 1.29 mL
  Animal paw volume percent change (%): −10.41% and −7.66% and −1.44% and −3.40% and −1.54% and −6.54% and −3.00% and −5.51%
Day 12, R paw
  Animal paw volume: 1.37 mL and 1.27 mL and 1.29 mL
  Animal paw volume percent change (%): −6.74% and −3.09% and −0.73% and −7.43% and −1.56% and −9.27% and −7.01% and −5.86%
Day 12
  Average animal body weight percent change: −1.18%
  Overall clinical score: 0
Day 12, CIA
  Detailed Clinical Scores, left forelimb: 0
  Detailed Clinical Scores, left hind limb: 0
  Detailed Clinical Scores, right forelimb: 0
  Detailed Clinical Scores, right hind limb: 0
  Detailed Clinical Scores, score: 0
Day 13, L paw
  Animal paw volume: 1.40 mL and 1.29 mL (2×) and 1.30 mL and 1.31 mL
  Animal paw volume percent change (%): −8.92% and −5.36% and 0.72% and −3.02% and 0.00% and −4.23% and −2.25% and −5.51%
Day 13, R paw
  Animal paw volume: 1.27 mL and 1.38 mL and 1.28 mL and 1.31 mL and 1.29 mL
  Animal paw volume percent change (%): −5.99% and −2.32% and 0.36% and −7.43% and −0.78% and −6.95% and −3.69% and −5.86%
Day 13
  Average animal body weight percent change: −0.91%
  Overall clinical score: 0
Day 13, CIA
  Detailed Clinical Scores, left forelimb: 0
  Detailed Clinical Scores, left hind limb: 0
  Detailed Clinical Scores, right forelimb: 0
  Detailed Clinical Scores, right hind limb: 0
  Detailed Clinical Scores, score: 0
Day 14, L paw
  Animal paw volume: 1.39 mL and 1.27 mL and 1.28 mL and 1.29 mL
  Animal paw volume percent change (%): −8.18% and −5.36% and 0.00% and −4.53% and −1.54% and −5.00% and −3.75% and −8.46%
Day 14, R paw
  Animal paw volume: 1.38 mL and 1.29 mL
  Animal paw volume percent change (%): −5.62% and −2.70% and 0.00% and −8.92% and −2.33% and −7.72% and −5.17% and −8.06%
Day 14
  Average animal body weight percent change: −1.24%
  Overall clinical score: 0
Day 14, CIA
  Detailed Clinical Scores, left forelimb: 0
  Detailed Clinical Scores, left hind limb: 0
  Detailed Clinical Scores, right forelimb: 0
  Detailed Clinical Scores, right hind limb: 0
  Detailed Clinical Scores, score: 0
Day 15, L paw
  Animal paw volume: 1.36 mL and 1.28 mL and 1.33 mL and 1.27 mL
  Animal paw volume percent change (%): −8.92% and −7.28% and −2.17%
Day 15, R paw
  Animal paw volume: 1.36 mL and 1.27 mL (2×) and 1.32 mL
  Animal paw volume percent change (%): −6.74% and −4.25% and −1.45%
Day 15
  Average animal body weight percent change: 0.43%
  Overall clinical score: 0
Day 15, CIA
  Detailed Clinical Scores, left forelimb: 0
  Detailed Clinical Scores, left hind limb: 0
  Detailed Clinical Scores, right forelimb: 0
  Detailed Clinical Scores, right hind limb: 0
  Detailed Clinical Scores, score: 0
Day 16
  Average animal body weight percent change: −0.57%
Day 17
  Average animal body weight percent change: 0.62%
Day 18, L paw
  Animal paw volume: 1.28 mL and 1.45 mL and 1.31 mL and 1.29 mL and 1.34 mL and 1.30 mL
  Animal paw volume percent change (%): −5.20% and −6.51% and 4.33%
Day 18, R paw
  Animal paw volume: 1.28 mL and 1.44 mL and 1.31 mL and 1.29 mL (2×) and 1.34 mL
  Animal paw volume percent change (%): −4.49% and −4.63% and 4.36%
Day 18
  Average animal body weight percent change: 1.02%
  Overall clinical score: 0
Day 18, CIA rats
  Detailed Clinical Scores, left forelimb: 0
  Detailed Clinical Scores, left hind limb: 0
  Detailed Clinical Scores, right forelimb: 0
  Detailed Clinical Scores, right hind limb: 0
  Detailed Clinical Scores, score: 0
Day 19, L paw
  Animal paw volume: 1.28 mL (2×) and 1.44 mL and 1.30 mL (2×) and 1.33 mL
  Animal paw volume percent change (%): −5.20% and −6.90% and 3.61%
Day 19, R paw
  Animal paw volume: 1.27 mL (2×) and 1.44 mL and 1.31 mL and 1.32 mL and 1.30 mL
  Animal paw volume percent change (%): −5.24% and −6.18%
Day 19
  Average animal body weight percent change: 1.53%
  Overall clinical score: 0
Day 19, CIA rats
  Detailed Clinical Scores, left forelimb: 0
  Detailed Clinical Scores, left hind limb: 0
  Detailed Clinical Scores, right forelimb: 0
  Detailed Clinical Scores, right hind limb: 0
  Detailed Clinical Scores, score: 0
Day 20
  Average animal body weight percent change: 1.66%
Day 21, L paw
  Animal paw volume: 1.43 mL and 1.31 mL (2×) and 1.30 mL (2×)
  Animal paw volume percent change (%): −6.32% and −6.90%
Day 21, R paw
  Animal paw volume: 1.43 mL and 1.31 mL and 1.30 mL (2×) and 1.32 mL
  Animal paw volume percent change (%): −5.99% and −6.18%
Day 21
  Average animal body weight percent change: 1.30%
  Overall clinical score: 0
Day 21, CIA rats
  Detailed Clinical Scores, left forelimb: 0
  Detailed Clinical Scores, left hind limb: 0
  Detailed Clinical Scores, right forelimb: 0
  Detailed Clinical Scores, right hind limb: 0
  Detailed Clinical Scores, score: 0
Day 0, individual animals
  Animal body weight percent change: 0.00%
Day 1, individual animals
  Animal body weight percent change: 0.66% and −7.41% and −1.72% and −2.37% and −1.20% and −6.21%
Day 2, individual animals
  Animal body weight percent change: −0.66% and −6.79% and 1.15% and −1.78% and −3.01% and −8.07%
Day 3, individual animals
  Animal body weight percent change: −1.99% and −11.11% and 0.57% and −2.96% and −2.41% and −9.94%
Day 4, individual animals
  Animal body weight percent change: −2.65% and −9.26% and −2.30% and −5.33% and −6.02%
Day 5, individual animals
  Animal body weight percent change: −2.65% and −8.02% and −5.17% and −2.96% and −4.82%
Day 6, individual animals
  Animal body weight percent change: −2.65% and −6.17% and −1.72% and −4.73% and −6.63%
Day 7, individual animals
  Animal body weight percent change: −0.66% and −5.56% and 2.30% and −4.14% and −3.61%
Day 15, individual animals
  Animal body weight percent change: 9.93% and −3.09% and 2.30% and 0.59% and −1.20% and −6.83% and 2.33% and −0.63%
Day 16, individual animals
  Animal body weight percent change: 3.97% and −5.56% and 7.47% and −0.59% and −4.22% and −8.70% and 1.16% and 1.88%
Day 17, individual animals
  Animal body weight percent change: 5.96% and −4.32% and 8.05% and −2.37% and 0.60% and −6.83% and −1.16% and 5.00%
Day 18, individual animals
  Animal body weight percent change: 3.97% and −6.17% and 8.62% and −2.37% and 0.00% and −5.59% and 4.07% and 5.63%
Day 19, individual animals
  Animal body weight percent change: 7.28% and −9.26% and 10.34% and 0.59% and 1.20% and −5.59% and 5.81% and 1.88%
Day 20, individual animals
  Animal body weight percent change: 7.95% and −3.70% and 5.75% and 2.37% and 0.60% and −4.35% and 4.65% and 0.00%
Day 21, individual animals
  Animal body weight percent change: 8.61% and −3.70% and 7.47% and 0.00% and −3.01% and −5.59% and 2.91% and 3.75%
